Assay [1] is described as follows: Ratio of RH to RL was determined in the absence of GPP(NH)p pretreated with the compound at 100 nM.
The target in assay [2] is D(2) dopamine receptor (Bos taurus) (UniProt P20288). Nature of the assay: Inhibitor constant(Ki) for Dopamine receptor D2 calculated for high affinity(KH) component of [3H]spiperidol binding in the presence of GPP(NH)p pretreated with the compound at 100 nM.
For assay [3] the target is unchanged. Nature of the assay: Percentage of Dopamine receptor D2 in the low affinity form(RL) for the agonist was determined in the presence of GPP(NH)p pretreated with the compound at 100 nM. The format is functional.
Assay [4] has the same target. The assay is described as follows: Percentage of Dopamine receptor D2 in the low affinity form(RL) for the agonist was determined in the absence of GPP(NH)p pretreated with the compound at 100 nM. It is filed as functional.
For assay [5] the target is unchanged. The assay is described as follows: Inhibitor constant(Ki) for Dopamine receptor D2 calculated for […] component of [3H]-spiperidol binding in the absence of GPP(NH)p pretreated with the compound at 100 nM.
Assay [6] is described as follows: Ratio of RH to RL was determined in the presence of GPP(NH)p pretreated with the compound at 100 nM.
Assay [7] deals with D(2) dopamine receptor (Bos taurus) (UniProt P20288). The assay is described as follows: Percentage of Dopamine receptor D2 in the high affinity form(RH) for the agonist was determined in the presence of GPP(NH)p pretreated with the compound at 100 nM. It is filed as functional.
The target is the same in assay [8]. The assay is described as follows: Inhibitor constant(Ki) for Dopamine receptor D2 calculated for high affinity(KH) component of [3H]spiperidol binding in the absence of GPP(NH)p pretreated with the compound at 100 nM.
Assay [9] shares this target. Nature of the assay: Percentage of Dopamine receptor D2 in the high affinity form(RH) for the agonist was determined in the absence of GPP(NH)p pretreated with the compound at 100 nM. The format is functional.
Assay [10] shares this target. The assay is described as follows: Inhibitor constant(Ki) for Dopamine receptor D2 calculated for low affinity(KL) component of [3H]spiperidol binding in the presence of GPP(NH)p pretreated with the compound at 100 nM.
Assay [11] shares this target. The assay is described as follows: Inhibitor constant(Ki) for Dopamine receptor D2 calculated for low affinity(KL) component of [3H]spiperidol binding in the absence of GPP(NH)p pretreated with the compound at 100 nM.
Assay [12] concerns Rattus norvegicus. The assay is described as follows: Maximal increase in rotations at a dose of 10 ug/kg, ip in 6-hydroxydopamine-lesioned rat model of hemi-parkinsonism. The format is functional.
The subject of assay [13] is Rattus norvegicus. Nature of the assay: Maximal increase in rotations at a dose of 0.1 ug/kg, ip in 6-hydroxydopamine-lesioned rat model of hemi-parkinsonism. It is filed as functional.
For assay [14], the system named is Rattus norvegicus. The assay is described as follows: Maximal increase in rotations at a dose of 1 ug/kg, ip in 6-hydroxydopamine-lesioned rat model of hemi-parkinsonism. The format is functional.
In assay [15] the test system is Rattus norvegicus. Nature of the assay: Maximal increase in rotations at a dose of 1 mg/kg, ip in 6-hydroxydopamine-lesioned rat model of hemi-parkinsonism. The format is functional. Particulars: route intraperitoneal.

Structures are written as SMILES. Where “and” joins values, the source holds several entries; their conditions need not be identical. Equal values may be shown once.

Chain of D(2) dopamine receptor (Bos taurus) (P20288 whole entry): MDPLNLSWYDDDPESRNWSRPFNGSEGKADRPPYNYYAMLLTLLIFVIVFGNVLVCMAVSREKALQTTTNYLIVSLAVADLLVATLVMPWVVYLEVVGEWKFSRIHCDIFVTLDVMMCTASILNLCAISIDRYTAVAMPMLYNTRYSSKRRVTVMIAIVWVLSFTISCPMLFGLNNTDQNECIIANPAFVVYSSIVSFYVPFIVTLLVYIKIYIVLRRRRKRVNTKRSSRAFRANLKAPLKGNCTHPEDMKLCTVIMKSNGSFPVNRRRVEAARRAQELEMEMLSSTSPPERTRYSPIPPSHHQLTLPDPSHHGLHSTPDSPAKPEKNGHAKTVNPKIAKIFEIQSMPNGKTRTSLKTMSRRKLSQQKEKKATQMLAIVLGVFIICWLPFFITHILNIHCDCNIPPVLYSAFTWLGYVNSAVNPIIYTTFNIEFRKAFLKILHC

Regarding `C[C@@H]1CCN(C(=O)[C@@H]2CCCN2)[C@@H]1C(=O)N1CCC[C@H]1C(N)=O`, the Ratio in assay [1] is 1.08; in [6], 1.17. The KH in [2] is 0.087 nM; in [8] it was 0.052 nM and 52%. Further, the KL in assay [2] was 106 nM; in [5], 98 nM. Further, the values for the RL in [3] and in [4] were 46% and 48%, respectively. Also, in assay [7], the RH amounted to 54%.

Consider `NC(=O)[C@@H]1CCCN1C(=O)[C@@H]1CCCN1C(=O)[C@@H]1CCCN1`, for which the values for the RH in assay [9] and in assay [7] were 73% and 54%, respectively. In addition, the figures for the Ratio in [1] and in assay [6] were 2.7 and 1.17, respectively. Besides, the figures for the KH in assay [2] and in assay [8] were 0.089 nM and 0.05 nM, respectively. The RL was 46% in assay [3] and 27% in assay [4]. Moreover, the KL in [10] is 88 nM; in assay [11], 110 nM. This compound also gave an Increase with Rattus norvegicus [12] of 47%.

In the assay on Rattus norvegicus [13], `CC(C)C[C@H](NC(=O)[C@@H]1CCCN1)C(=O)N1CCCC1C(N)=O` (single isomer, unassigned) displayed an Increase of 30%.

For the compound `CC(C)C[C@H](NC(=O)[C@@H]1CCCN1)C(=O)N1CCC[C@@H]1C(N)=O`, in the assay with Rattus norvegicus [14], the Increase came out at 26%.

Take `NC(=O)[C@H]1CCCN1C(=O)[C@@H]1CCCN1C(=O)[C@@H]1CCCN1`: the RH was found to be 71% in [9] and 67% in assay [7]. Further, the Ratio in assay [1] was found to be 2.45; in assay [6] it was 2.03. In addition, the KH was 0.054 nM in [2] and 0.086 nM in [8]. The RL in [3] stood at 33%; in assay [4] it was 29%. The KL is 140 nM in [10] and 153 nM in [11].

In turn, `CC(C)CC(NC(=O)[C@@H]1CCCN1)C(=O)NCC(N)=O` (single isomer, unassigned) had an Increase in the assay with Rattus norvegicus [15] of 30%.

The values above are taken from ChEMBL document CHEMBL1131839, “Synthesis and dopamine receptor modulating activity of unsubstituted and substituted triproline analogues of L-prolyl-L-leucyl-glycinamide (PLG)” (1999).
